According to patent EP2970215B1, “PYRROLIDINE DERIVATIVES, PHARMACEUTICAL COMPOSITIONS CONTAINING THEM, AND THEIR USE IN THERAPY” (AbbVie Deutschland GmbH & Co. KG, priority 2013, dated 2014):

Target: T1, human GlyT1c transporter (Homo sapiens, UniProt P48067)
T1 construct: expressed in transfected cells; host or cells: CHO cells (recombinant; line hGlyT1c_5_CHO is named for the uptake assay)
T1 sequence (P48067 1-706): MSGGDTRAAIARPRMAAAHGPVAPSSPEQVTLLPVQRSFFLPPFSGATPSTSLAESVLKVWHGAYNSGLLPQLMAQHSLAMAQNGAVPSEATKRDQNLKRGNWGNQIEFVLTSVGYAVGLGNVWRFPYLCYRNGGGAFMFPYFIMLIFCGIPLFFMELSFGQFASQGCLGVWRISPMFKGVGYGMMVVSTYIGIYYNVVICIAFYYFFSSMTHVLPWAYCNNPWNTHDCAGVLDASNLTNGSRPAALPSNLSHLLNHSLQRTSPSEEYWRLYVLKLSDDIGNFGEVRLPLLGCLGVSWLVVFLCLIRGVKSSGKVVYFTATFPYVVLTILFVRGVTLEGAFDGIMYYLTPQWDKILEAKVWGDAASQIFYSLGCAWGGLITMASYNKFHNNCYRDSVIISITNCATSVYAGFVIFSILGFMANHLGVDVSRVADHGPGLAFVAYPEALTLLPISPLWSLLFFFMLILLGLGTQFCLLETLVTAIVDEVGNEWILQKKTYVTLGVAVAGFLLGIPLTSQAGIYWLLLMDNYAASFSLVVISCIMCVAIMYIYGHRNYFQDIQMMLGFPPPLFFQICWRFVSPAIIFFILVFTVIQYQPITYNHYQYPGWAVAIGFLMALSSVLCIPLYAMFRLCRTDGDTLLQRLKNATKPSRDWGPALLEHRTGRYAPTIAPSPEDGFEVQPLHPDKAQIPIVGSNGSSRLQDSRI
Assay: Radioligand binding assay using recombinant CHO cell membranes expressing human GlyT1
Conditions: radioligand binding to human GlyT1c transporter-expressing membranes
Excerpt: 2. Radioligand binding assays using recombinant CHO cell membranes expressing human GlyT1: […]

Ki [nM] | Compound
≤ 100 | Cn1cnc(S(=O)(=O)N2C[C@@H](COc3cccc(F)c3)[C@H](c3ccc(F)cc3)C2)c1 (relative stereo) [Example 251, 4-{[trans-3-[(3-fluorophenoxy)methyl]-4-(4-fluorophenyl)pyrrolidin-1-yl]sulfonyl}-1-methyl-1H-imidazole]
≤ 1000 | Cn1cnc(S(=O)(=O)N2C[C@@H](Nc3cccc(F)c3)[C@H](c3ccccc3Cl)C2)c1 (relative stereo) [Example 252, trans-4-(2-chlorophenyl)-N-(3-fluorophenyl)-1-[(1-methyl-1H-imidazol-4-yl)sulfonyl]pyrrolidin-3-amine]
≤ 1000 | Cn1cnc(S(=O)(=O)N2C[C@@H](Nc3ccc(F)cc3)[C@H](c3ccccc3Cl)C2)c1 (relative stereo) [Example 253, trans-4-(2-chlorophenyl)-N-(4-fluorophenyl)-1-[(1-methyl-1H-imidazol-4-yl)sulfonyl]pyrrolidin-3-amine]
≤ 10000 | Cn1cnc(S(=O)(=O)N2C[C@@H](Nc3ccc(Cl)cc3)[C@H](c3ccccc3Cl)C2)c1 (relative stereo) [Example 254, trans-4-(2-chlorophenyl)-N-(4-chlorophenyl)-1-[(1-methyl-1H-imidazol-4-yl)sulfonyl]pyrrolidin-3-amine]
≤ 100 | Cn1cnc(S(=O)(=O)N2C[C@@H](Nc3cccc(C(F)(F)F)c3)[C@H](c3ccccc3Cl)C2)c1 (relative stereo) [Example 255, trans-4-(2-chlorophenyl)-1-[(1-methyl-1H-imidazol-4-yl)sulfonyl]-N-[3-(trifluoromethyl)phenyl]pyrrolidin-3-amine]
≤ 1000 | Cn1cnc(S(=O)(=O)N2C[C@@H](Nc3ccc(C(F)(F)F)cc3)[C@H](c3ccccc3Cl)C2)c1 (relative stereo) [Example 256, trans-4-(2-chlorophenyl)-1-[(1-methyl-1H-imidazol-4-yl)sulfonyl]-N-[4-(trifluoromethyl)phenyl]pyrrolidin-3-amine]
≤ 100 | Cn1cnc(S(=O)(=O)N2C[C@@H](Nc3ccc(F)c(Cl)c3)[C@H](c3ccccc3Cl)C2)c1 (relative stereo) [Example 257, trans-N-(3-chloro-4-fluorophenyl)-4-(2-chlorophenyl)-1-[(1-methyl-1H-imidazol-4-yl)sulfonyl]pyrrolidin-3-amine]
≤ 1000 | Cn1cnc(S(=O)(=O)N2C[C@@H](Nc3ccc(F)c(C(F)(F)F)c3)[C@H](c3ccccc3Cl)C2)c1 (relative stereo) [Example 258, trans-4-(2-chlorophenyl)-N-[4-fluoro-3-(trifluoromethyl)phenyl]-1-[(1-methyl-1H-imidazol-4-yl)sulfonyl]pyrrolidin-3-amine]
≤ 1000 | Cn1cnc(S(=O)(=O)N2C[C@@H](Nc3ccnc(C(F)(F)F)c3)[C@H](c3ccccc3Cl)C2)c1 (relative stereo) [Example 259, N-{trans-4-(2-chlorophenyl)-1-[(1-methyl-1H-imidazol-4-yl)sulfonyl]pyrrolidin-3-yl}-2-(trifluoromethyl)pyridin-4-amine]
≤ 100 | Cn1cnc(S(=O)(=O)N2C[C@@H](NCc3ccccc3Cl)[C@H](c3ccc(F)cc3)C2)c1 (relative stereo) [Example 260, trans-N-(2-chlorobenzyl)-4-(4-fluorophenyl)-1-[(1-methyl-1H-imidazol-4-yl)sulfonyl]pyrrolidin-3-amine]
≤ 1000 | Cn1cnc(S(=O)(=O)N2C[C@@H](NCc3cccc(Cl)c3)[C@H](c3ccc(F)cc3)C2)c1 (relative stereo) [Example 261, trans-N-(3-chlorobenzyl)-4-(4-fluorophenyl)-1-[(1-methyl-1H-imidazol-4-yl)sulfonyl]pyrrolidin-3-amine]
≤ 10 | Cn1cnc(S(=O)(=O)N2C[C@@H](NCc3ccc(Cl)cc3)[C@H](c3ccc(F)cc3)C2)c1 (relative stereo) [Example 262, trans-N-(4-chlorobenzyl)-4-(4-fluorophenyl)-1-[(1-methyl-1H-imidazol-4-yl)sulfonyl]pyrrolidin-3-amine]
≤ 100 | Cn1cnc(S(=O)(=O)N2C[C@@H](NCc3ccccc3F)[C@H](c3ccc(F)cc3)C2)c1 (relative stereo) [Example 263, trans-N-(2-fluorobenzyl)-4-(4-fluorophenyl)-1-[(1-methyl-1H-imidazol-4-yl)sulfonyl]pyrrolidin-3-amine]
≤ 1000 | Cn1cnc(S(=O)(=O)N2C[C@@H](NCc3cccc(F)c3)[C@H](c3ccc(F)cc3)C2)c1 (relative stereo) [Example 264, trans-N-(3-fluorobenzyl)-4-(4-fluorophenyl)-1-[(1-methyl-1H-imidazol-4-yl)sulfonyl]pyrrolidin-3-amine]
≤ 1000 | Cn1cnc(S(=O)(=O)N2C[C@@H](NCc3ccccc3C(F)(F)F)[C@H](c3ccc(F)cc3)C2)c1 (relative stereo) [Example 265, trans-4-(4-fluorophenyl)-1-[(1-methyl-1H-imidazol-4-yl)sulfonyl]-N-[2-(trifluoromethyl)benzyl]pyrrolidin-3-amine]
≤ 1000 | Cn1cnc(S(=O)(=O)N2C[C@@H](NCc3cccc(C(F)(F)F)c3)[C@H](c3ccc(F)cc3)C2)c1 (relative stereo) [Example 266, trans-4-(4-fluorophenyl)-1-[(1-methyl-1H-imidazol-4-yl)sulfonyl]-N-[3-(trifluoromethyl)benzyl]pyrrolidin-3-amine]
≤ 10 | Cn1cnc(S(=O)(=O)N2C[C@@H](NCc3ccc(C(F)(F)F)cc3)[C@H](c3ccc(F)cc3)C2)c1 (relative stereo) [Example 267, trans-4-(4-fluorophenyl)-1-[(1-methyl-1H-imidazol-4-yl)sulfonyl]-N-[4-(trifluoromethyl)benzyl]pyrrolidin-3-amine]
≤ 10000 | Cn1cnc(S(=O)(=O)N2C[C@@H](NCc3ccccn3)[C@H](c3ccc(F)cc3)C2)c1 (relative stereo) [Example 268, trans-4-(4-fluorophenyl)-1-[(1-methyl-1H-imidazol-4-yl)sulfonyl]-N-(pyridin-2-ylmethyl)pyrrolidin-3-amine]
≤ 10000 | Cn1cnc(S(=O)(=O)N2C[C@@H](NCc3cccnc3)[C@H](c3ccc(F)cc3)C2)c1 (relative stereo) [Example 269, trans-4-(4-fluorophenyl)-1-[(1-methyl-1H-imidazol-4-yl)sulfonyl]-N-(pyridin-3-ylmethyl)pyrrolidin-3-amine]
≤ 10000 | Cn1cnc(S(=O)(=O)N2C[C@@H](NCc3ccncc3)[C@H](c3ccc(F)cc3)C2)c1 (relative stereo) [Example 270, trans-4-(4-fluorophenyl)-1-[(1-methyl-1H-imidazol-4-yl)sulfonyl]-N-(pyridin-4-ylmethyl)pyrrolidin-3-amine]
≤ 1000 | Cn1cnc(S(=O)(=O)N2C[C@@H](C(=O)Nc3cccc(C(F)(F)F)c3Cl)[C@H](c3ccc(F)cc3)C2)c1 (relative stereo) [Example 272, Trans-N-[2-chloro-3-(trifluoromethyl)phenyl] -4-(4-fluorophenyl)-1 - [(1-methyl-1H-imidazol-4-yl)sulfonyl]pyrrolidine-3-carboxamide]
≤ 100 | Cn1cnc(S(=O)(=O)N2C[C@@H](C(=O)Nc3ccc(F)c(C(F)(F)F)c3)[C@H](c3ccc(F)cc3)C2)c1 (relative stereo) [Example 274, trans-4-(4-fluorophenyl)-N-[4-fluoro-3-(trifluoromethyl)phenyl]-1-[(1-methyl-1H-imidazol-4-yl)sulfonyl]pyrrolidine-3-carboxamide]
≤ 1000 | Cn1cnc(S(=O)(=O)N2C[C@@H](C(=O)Nc3ccc(F)c(Cl)c3)[C@H](c3ccc(F)cc3)C2)c1 (relative stereo) [Example 275, trans-N-(3-chloro-4-fluorophenyl)-4-(4-fluorophenyl)-1-[(1-methyl-1H-imidazol-4-yl)sulfonyl]pyrrolidine-3-carboxamide]
≤ 1000 | Cn1cnc(S(=O)(=O)N2C[C@@H](C(=O)Nc3ccc(C(F)(F)F)c(Cl)c3)[C@H](c3ccc(F)cc3)C2)c1 (relative stereo) [Example 276, trans-N-[3-chloro-4-(trifluoromethyl)phenyl]-4-(4-fluorophenyl)-1-[(1-methyl-1H-imidazol-4-yl)sulfonyl]pyrrolidine-3-carboxamide]
≤ 100 | Cn1cnc(S(=O)(=O)N2C[C@@H](Nc3cccc(Cl)c3)[C@H](c3ccccc3Cl)C2)c1 (relative stereo) [Example 278, trans-4-(2-chlorophenyl)-N-(3-chlorophenyl)-1-[(1-methyl-1H-imidazol-4-yl)sulfonyl]pyrrolidin-3-amine]

Compound | Ki [nM]
Cn1cnc(S(=O)(=O)N2C[C@@H](C(=O)c3ccccc3)[C@H](c3ccc(F)cc3)C2)c1 (relative stereo) [Example 271, {trans-4-(4-fluorophenyl)-1-[(1-methyl-1H-imidazol-4-yl)sulfonyl]pyrrolidin-3-yl}(phenyl)methanone] | ≤ 1000
